Assay [1] addresses T1, Amine oxidase [flavin-containing] B (Homo sapiens, UniProt P27338).
T1 sequence (P27338 whole entry): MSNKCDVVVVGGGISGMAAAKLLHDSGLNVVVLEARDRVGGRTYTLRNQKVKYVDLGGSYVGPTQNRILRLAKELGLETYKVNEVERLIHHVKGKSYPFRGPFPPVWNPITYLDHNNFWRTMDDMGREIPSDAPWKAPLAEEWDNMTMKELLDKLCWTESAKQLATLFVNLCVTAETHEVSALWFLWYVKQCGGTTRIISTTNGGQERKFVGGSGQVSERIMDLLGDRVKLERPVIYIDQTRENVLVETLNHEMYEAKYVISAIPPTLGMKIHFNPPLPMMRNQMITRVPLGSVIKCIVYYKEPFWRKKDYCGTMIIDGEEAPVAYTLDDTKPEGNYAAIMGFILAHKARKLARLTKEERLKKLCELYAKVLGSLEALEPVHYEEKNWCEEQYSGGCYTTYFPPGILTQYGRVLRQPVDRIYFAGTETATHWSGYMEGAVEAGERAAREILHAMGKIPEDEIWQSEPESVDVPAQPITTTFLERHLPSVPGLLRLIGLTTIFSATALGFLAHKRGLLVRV
Kind of assay: Inhibition of MAO-B (unknown origin) using p-tyramine substrate by HPLC method.

For assay [2], the target named is T1, Amine oxidase [flavin-containing] B. In words: Inhibition of MAO-B (unknown origin).
The target is the same in assay [3]. Kind of assay: Inhibition of human recombinant MAO-B expressed in insect cells at 10 uM by Amplex Red assay. The note with it: read-out: INH.
The target is the same in assay [4]. In words: Inhibition of human recombinant MAO-B expressed in insect cells by Amplex Red assay. It is filed as cell-based.

As to `COc1cccc(C(=O)/C=C/C2=Cc3cc(Br)ccc3OC2)c1`, half-maximal inhibition in assay [1] (IC50) required 35.9 µM.
`O=c1c(Cc2ccc(Cl)cc2)coc2cc(Cl)cc(Cl)c12` showed an IC50 in assay [2] of 0.437 µM.
In assay [1], `COc1cc(OC)cc(C(=O)/C=C/C2=Cc3cc(Br)ccc3OC2)c1` displayed a half-maximal inhibitory concentration (IC50) of 16.7 µM.
Consider `COc1ccc2c(c1)C=C(/C=C/C(=O)c1ccccc1OC)CO2`, for which the inhibition at 10 µM in assay [3] amounted to 91.6%. For the same molecule, the IC50 worked out at 13.7 µM in assay [1] and 0.32 µM in assay [4].
Molecule `COc1cc(/C=C/C(=O)C2=Cc3cc(OC)ccc3OC2)cc(OC)c1` had a 50% inhibitory concentration (IC50) in assay [1] of 18.3 µM.
In turn, `COc1ccccc1C(=O)/C=C/C1=Cc2cc(Br)ccc2OC1` came in with a half-inhibitory concentration (IC50) in assay [1] of 42.8 µM.

Source of the values: ChEMBL document CHEMBL3091392, “Chromenylchalcones with inhibitory effects on monoamine oxidase B” (Bioorg Med Chem, 2013).
